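Following 48 hours of exposure in 96-well plates, responses at five concentrations were used to interpolate endpoints linearly. GI50 is the concentration that inhibits growth by half.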 Activity calls are given as the source filed them. Rule as the data show it: active = GI50 up to about 1.1 µM and inactive = higher.
Tests used:
Assay in all cases: inhibition of tumour cell growth, NCI panel, 48 h
RXF 631 = tested on: RXF 631
LXFL 529 = tested on: LXFL 529
KM-20L2 = tested on: KM-20L2
DMS-114 = tested on: DMS-114
DLD-1 = tested on: DLD-1
M19-MEL = tested on: M19-MEL
SNB-78 = tested on: SNB-78
DMS-273 = tested on: DMS-273
XF498 = tested on: XF498

SMILES	GI50 (RXF 631)	GI50 (LXFL 529)	GI50 (KM-20L2)	GI50 (DMS-114)	GI50 (DLD-1)	GI50 (M19-MEL)	GI50 (SNB-78)	GI50 (DMS-273)	GI50 (XF498)
CCCCCCCCCCCCSC(=S)c1c(C)[nH]n(CCCCCCCCCCCC)c1=O	> 100 µM (inactive)	67.9 µM (inactive)	73.1 µM (inactive)	46.1 µM (inactive)	> 100 µM (inactive)	31.6 µM (inactive)	> 100 µM (inactive)	–	–
COC(=O)C(Cc1ccc2c(c1)OCO2)(NC(=O)c1ccccc1)P(=O)(OC)OC (centres undefined)	> 100 µM (inactive)	> 100 µM (inactive)	> 100 µM (inactive)	> 100 µM (inactive)	> 100 µM (inactive)	> 100 µM (inactive)	> 100 µM (inactive)	> 100 µM (inactive)	> 100 µM (inactive)
Nc1nc(Cl)nc2c1ncn2C1CC(O)C(CO)O1 (centres undefined)	–	–	2.42 µM (inactive)	0.228 µM (active)	> 100 µM (inactive)	> 30.3 µM (inactive)	> 100 µM (inactive)	3.89 µM (inactive)	–
C=C1C(=O)O[C@@H]2[C@H](O)[C@@H](C)[C@@H]3C=CC(=O)[C@@]3(C)[C@@H](OC(=O)/C(C)=C/C)[C@H]12	–	–	1.75 µM (inactive)	0.498 µM (active)	0.728 µM (active)	0.363 µM (active)	0.871 µM (active)	0.451 µM (active)	0.471 µM (active)
